{"source": "paper PMC7813677", "about": "(Frontiers in Bioengineering and Biotechnology, 2021)", "assay": "Dissolution of the peptide in water", "format": "physicochemical", "conditions": "before addition of saline buffer pH 7.4", "protocol": "Gels were prepared by dissolving lyophilized peptide in water to obtain 2X concentrated (wt%) peptide stock solution. Peptide assembly was initiated by mixing together equal volumes of peptide stock solution and chilled 2X HEPES buffer solution (150 mM HEPES, 300 mM NaCl, pH 7.4) on ice. The final mixed solution (1X wt% peptide in 75 mM HEPES, 150 mM NaCl, pH 7.4) was then incubated for 2 h at 37°C, resulting with a self-supporting gel.", "note": "Non-standard residues stand in square brackets, D forms with d. Residues, ends and D or L forms follow the SMILES beside them.", "data": [{"smiles": "CC(C)[C@H](N)C(=O)N[C@@H](CCCCN)C(=O)N[C@H](C(=O)N[C@@H](CCCCN)C(=O)N[C@H](C(=O)N[C@@H](CCCCN)C(=O)N[C@H](C(=O)N[C@@H](CCCCN)C(=O)N[C@H](C(=O)N1CCC[C@@H]1C(=O)N1CCC[C@H]1C(=O)N[C@H](C(=O)N[C@@H](CCCCN)C(=O)N[C@H](C(=O)N[C@@H](Cc1ccc(O)cc1)C(=O)N[C@H](C(=O)N[C@@H](CCCCN)C(=O)N[C@H](C(=O)N[C@@H](CCCCN)C(=O)N[C@H](C(N)=O)C(C)C)C(C)C)C(C)C)C(C)C)[C@@H](C)O)C(C)C)C(C)C)C(C)C)C(C)C", "note": "[tyrosine-functionalized peptide] (H-VKVKVKVKV[dP]PTKVYVKVKV-NH2)", "values": [{"measurement": "Solubility in water", "result": "readily dissolved in water"}]}]}
